Assay results taken from ChEMBL document CHEMBL1133386, “Synthesis and antitumor activities of 5-methyl-1- and 2-[[2-dimethylaminoethyl]amino]-aza-thiopyranoindazoles” (Bioorg Med Chem Lett, 2000).
Converted amounts (≈) assume the structure as drawn.

Legend:
L1210 = experiment: In vitro cytotoxic activity against murine leukemia L1210 cells.; format: functional, cell-based; conditions: Mus musculus
[1] = In vitro cytotoxic activity against sarcoma resistant to doxorubicin S-180 Dx cells.; format: functional, cell-based; conditions: Mus musculus
[2] = In vitro cytotoxic activity against sarcoma S-180 cells.; format: functional, cell-based; conditions: Mus musculus
LoVo [3] = experiment: In vitro cytotoxic activity against human colon adenocarcinoma resistant to doxorubicin (LoVo Dx) cells; format: functional, cell-based
LoVo [4] = experiment: In vitro cytotoxic activity against human colon adenocarcinoma (LoVo) cells; format: functional, cell-based
[5] = Resistance index was determined by ratio of cytotoxicities of human colon adenocarcinoma (LoVo) cells to human colon adenocarcinoma resistant to doxorubicin (LoVo Dx) cells.; format: functional
LoVo [6] = experiment: In vitro cytotoxic activity against human colon adenocarcinoma resistant to doxorubicin (LoVo Dx) cells.; format: functional, cell-based
LoVo [7] = experiment: In vitro cytotoxic activity against human colon adenocarcinoma (LoVo) cells.; format: functional, cell-based

Row | SMILES | IC50 (L1210) | IC50 [1] | IC50 [2] | IC50 (LoVo [3]) | IC50 (LoVo [4]) | Resistance index [5] | IC50 (LoVo [6]) | IC50 (LoVo [7])
1 | Cc1ccc2nn(CCN(C)C)c3c2c1Sc1ccccc1-3 | 0.25 µg/mL (≈ 0.808 µM) | 0.75 µg/mL (≈ 2.42 µM) | 0.5 µg/mL (≈ 1.62 µM) |  |  |  |  | 
2 | Cc1ccc2c3c(nn2CCN(C)C)-c2ccccc2Sc13 | 0.07 µg/mL (≈ 0.226 µM) |  |  | 1.7 µg/mL (≈ 5.49 µM) | 0.7 µg/mL (≈ 2.26 µM) | 2.4 |  | 
3 | Cc1ccc2c3c(nn2CCN(C)C)-c2cnccc2Sc13 | 0.0006 µg/mL (≈ 0.00193 µM) | 0.009 µg/mL (≈ 0.029 µM) | 0.003 µg/mL (≈ 0.00966 µM) |  |  | 4.5 | 0.018 µg/mL (≈ 0.058 µM) | 0.004 µg/mL (≈ 0.0129 µM)
4 | Cc1ccc2nn(CCN(C)C)c3c2c1Sc1cnccc1-3 | 0.25 µg/mL (≈ 0.805 µM) | 0.4 µg/mL (≈ 1.29 µM) | 0.35 µg/mL (≈ 1.13 µM) |  |  |  |  | 
5 | O=C1c2c(O)ccc(O)c2C(=O)c2c(NCCNCCO)ccc(NCCNCCO)c21 [MITOXANTRONE] |  |  |  |  | 0.023 µg/mL (≈ 0.0517 µM) | 27 | 0.62 µg/mL (≈ 1.39 µM) | 
6 | COc1cccc2c1C(=O)c1c(O)c3c(c(O)c1C2=O)C[C@@](O)(C(=O)CO)C[C@@H]3O[C@H]1C[C@H](N)[C@H](O)[C@H](C)O1 [DOXORUBICIN] |  |  |  |  | 0.52 µg/mL (≈ 0.957 µM) | 97 |  | 
7 | Cc1ccc2c3c(nn2CCN(C)C)-c2ccncc2Sc13 | 0.045 µg/mL (≈ 0.145 µM) | 0.7 µg/mL (≈ 2.25 µM) | 0.08 µg/mL (≈ 0.258 µM) |  |  | 1 | 2.3 µg/mL (≈ 7.41 µM) | 2.3 µg/mL (≈ 7.41 µM)
8 | Cc1ccc2nn(CCN(C)C)c3c2c1Sc1ncccc1-3 | 0.26 µg/mL (≈ 0.838 µM) | 0.33 µg/mL (≈ 1.06 µM) | 0.3 µg/mL (≈ 0.966 µM) |  |  |  |  | 
9 | Cc1ccc2c3c(nn2CCN(C)C)-c2cccnc2Sc13 | 0.08 µg/mL (≈ 0.258 µM) | 0.62 µg/mL (≈ 2 µM) | 0.46 µg/mL (≈ 1.48 µM) |  |  | 1.1 | 3.3 µg/mL (≈ 10.6 µM) | 3.1 µg/mL (≈ 9.99 µM)
